SMILES strings stand for the structures.

Usually Cmax stands for the maximum level reached in the sampled fluid or tissue. Usually Tmax stands for the time from dosing to the highest level.

The conditions of data set [1]: cited from earlier work.
The conditions of data set [2]: after two treatment periods, 26 volunteers, single dose; 7 in total, all light.
From the text: All subjects agreed to participate in the study and were considered as healthy, all as determined through detection tests including medical history, physical examination, electrocardiogram, hematic biometry, blood chemistry with 24 elements, detection of drug abuse, general urine exam as well as hepatitis B and HIV tests. […] Smokers, pregnant women and subjects with a clinical history of hypersensitivity to drugs, foods or environmental substances were not included.
The prospective and longitudinal study was performed in a crossed and balanced, randomized design with two sequences, two periods, a single dose, single blind with a wash out period of 1 week between treatments. […] After dosing, serial blood samples were collected and vital signs monitored during a period of 24 hours. […] Vital signs were measured at 0, 1, 2, 3, 4, 6, 8, 12 and 24 hours after dosing. Subjects were held for 36 hours and monitored for safety and adverse effects throughout the study. Volunteers received a diet calculated at 3000 cal/day in each period.
Data set [3] in a line: clinical. Particulars: both, human, in vivo.
From the text: All subjects agreed to participate in the study and were considered as healthy, all as determined through detection tests including medical history, physical examination, electrocardiogram, hematic biometry, blood chemistry with 24 elements, detection of drug abuse, general urine exam as well as hepatitis B and HIV tests. Vital signs were considered normal with blood pressure of 50-90/84-120 mmHg, heart rate of 50-100 pulses/min, breathing rate was 14-25 breaths/min, and tympanic temperature of 36-37.8° C. […] Smokers, pregnant women and subjects with a clinical history of hypersensitivity to drugs, foods or environmental substances were not included.
The prospective and longitudinal study was performed in a crossed and balanced, randomized design with two sequences, two periods, a single dose, single blind with a wash out period of 1 week between treatments. […] After dosing, serial blood samples were collected and vital signs monitored during a period of 24 hours. Blood samples of 10 mL each were extracted at 0, 0.25, 0.5, 0.75, 1, 1.25, 1.5, 1.75, 2, 3, 4, 6, 8, 12 and 24 hours after administration. Vital signs were measured at 0, 1, 2, 3, 4, 6, 8, 12 and 24 hours after dosing. Subjects were held for 36 hours and monitored for safety and adverse effects throughout the study. Volunteers received a diet calculated at 3000 cal/day in each period. […]

For `CN(C)C(=N)N=C(N)N` [Metformin], in data set [1] (in vivo), the “Excreted with no changes in the urine” value is given as approximately 90%. Also, in data set [2], the “Number of adverse effects” value was 3. In data set [3] (500 mg), this compound came in with a peak concentration (Cmax) of 1.39 ± 0.44 µg/mL. In addition, in data set [3] (po), the Tmax is 2.41 h.

Turning to `CCCCCCCCCCC[C@@H](C[C@@H]1OC(=O)[C@H]1CCCCCC)OC(=O)[C@H](CC(C)C)NC=O` [Orlistat], in data set [1] (in vivo), the “Dietetic fat excreted in feces” value is recorded as “up to 30%” and the Excreted in feces is recorded as approximately 97%. In addition, the Oral bioavailability entry in data set [1] (metformin when fasting, orlistat administered orally) is “below 5%”.

The record behind these values is US20150342921A1, “METFORMIN-ORLISTAT COMPOSITIONS” (LANDSTEINER SCIENTIFIC S.A. DE C.V., priority 2012, published 2015).
